We go through 25 compounds from patent publication US10301280B2 (Plexxikon Inc., priority 2012, dated 2019).

Broadly, the IC50 is the concentration that inhibits the measured activity by half. The low end stands for higher potency, the high end for lower potency. A word on the pIC50: it is the negative decadic logarithm of the IC50, by convention in mol/L.

The target of experiment [1] is c-kit mutant D816V (Homo sapiens (Human), UniProt P10721, D816V/DEL694-753). Briefly: c-Kit mutant D816V biochemical assay (AlphaScreen). The conditions noted are these: c-kit D816V biochemical inhibitory activity. The method, then: The c-kit mutant D816V (or kinase domain thereof) is an active kinase in AlphaScreen. IC50 values are determined with respect to inhibition of c-Kit mutant D816V kinase activity, where inhibition of phosphorylation of a peptide substrate is measured as a function of compound concentration. Compounds to be tested were dissolved in DMSO to a concentration of 20 mM. These were diluted 30 μl into 120 μl of DMSO (4 mM) and 1 μl was added to an assay plate. These were then serially diluted 1:3 (50 μl to 100 μl DMSO) for a total of 8 points. Plates were prepared such that each kinase reaction is 20 μl in 1× kinase buffer (25 mM HEPES, pH 7.2, 8 mM MgCl2, 2 mM MnCl2, 50 mM NaCl, 0.01% Brij, 1 mM DTT, 0.01% BSA), 5% DMSO and 10 μM ATP. Substrate was 30 nM biotin-(E4Y)10 (EMD Millipore, Cat#12-440). C-kit mutant D816V kinase was at 0.75 ng per sample. After incubation of the kinase reaction for 30 minutes at room temperature, 5 μl of donor beads (Streptavidin coated beads (Perkin Elmer Life Science) final concentration 7.5 μg/ml) in stop buffer (25 mM Hepes pH 7.5, 100 mM EDTA, 0.01% BSA) was added, the sample was mixed and incubated for 20 minutes at room temperature before adding 5 μl of acceptor beads (PY20 coated beads (Perkin Elmer Life Science) final concentration 7.5 ug/ml) in stop buffer. The samples were incubated for 60 minutes at room temperature and the signal per well was read on EnVision reader. Phosphorylated substrate results in binding of the PY20 antibody and association of the donor and acceptor beads such that signal correlates with kinase activity. The signal vs. compound concentration was used to determine the IC50.
Recombinant c-kit mutant D816V (residues 551-934, kinase insertion domain residues 694-753 deleted) with a 6x-histidine N-terminal tag was expressed in E. coli Arctic Express (DE3) RIL (Stratagene). Cells were grown in Terrific Broth (TB) media to an OD600 of 0.6 at 37° C. at which temperature was reduced to 10° C., protein was induced with 1.0 mM IPTG for 18 hours and harvested by centrifugation at 8000×g for 20 minutes. Cells were re-suspended in 0.1M KPO4 pH 8.0, 250 mM NaCl, 10% Glycerol, 0.75% NP-40, 25 mM Imidazole, 5 mM BME with 0.2 mg/ml Lysosyme, 2.0 mM PMSF, 25 μg/ml DNAse I, incubated in ice for 30 minutes and lyzed with a cell disruptor (MicroFluidics). The lysate was clarified by centrifugation at 20,000×g for 2 hours. The protein was captured with Talon resin (Clontech). Contaminating proteins were washed off with 25 mM Tris-HCl pH 8.3, 250 mM NaCl, 15% Glycerol, 1% Triton X-100, and protein eluted using 100 mM EDTA. The protein was further purified using Gel Filtration column 26/600 Superdex 200 (GE) in 50 mM Tris-HCl, pH 8.0, 250 mM NaCl, 15% Glycerol, 5 mM BME. The protein was aliquoted and flash-frozen in liquid Nitrogen.
(Bead proximity is the source of the signal in Alpha formats.)

Experiment [2] relates to BaF3-FL KIT D816V or BaF3-FL KIT V560G/D816V cell line. Briefly: Cell-based assays of c-Kit mutant kinase activity (cell growth, ATPlite). The conditions noted are these: at least one of the c-kit cell assays of Example 26. Summed up: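 IC50 derived from ATP-content luminescence (ATPlite) after three-day compound exposure at 37° C., 5% CO2. Cells: BaF3 rendered growth-dependent on full-length human KIT D816V or V560G/D816V, 1×10^4 per well, RPMI plus 10% FBS; 8 points, 1:3 steps, maximum 10 μM final, 0.2% DMSO.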
On the technique in general: Cellular ATP, detected with luciferase, serves as a proxy for viable cell number.

Each structure is given as a SMILES string. pIC50: −log10 of the molar value. Some results are limits rather than exact numbers.

Chain of c-kit mutant D816V (P10721 other isoform, or with tags, fused parts or gaps D816V/del 694-753): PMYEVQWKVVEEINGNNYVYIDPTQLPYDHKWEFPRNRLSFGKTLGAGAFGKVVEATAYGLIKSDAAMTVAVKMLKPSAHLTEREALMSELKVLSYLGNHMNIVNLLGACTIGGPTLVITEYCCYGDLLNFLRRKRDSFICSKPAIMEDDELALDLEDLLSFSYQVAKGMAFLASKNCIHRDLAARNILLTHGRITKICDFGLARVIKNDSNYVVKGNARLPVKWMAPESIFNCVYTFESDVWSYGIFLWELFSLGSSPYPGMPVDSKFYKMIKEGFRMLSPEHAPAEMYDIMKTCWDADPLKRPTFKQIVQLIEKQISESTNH

The compound `NC(=O)c1cccc(NC(=O)c2cnc3[nH]c(-c4ccccc4)cc3c2)c1` [P-2003, N-(3-carbamoylphenyl)-2-phenyl-1H-pyrrolo[2,3-b]pyridine-5-carboxamide] displayed an IC50 in experiment [1] of 10 to 200 µM.

For the compound `O=C(Nc1cnc2[nH]c(-c3ccccc3)cc2c1)c1cc(C2CC2)n[nH]1` [P-2009, 3-cyclopropyl-N-(2-phenyl-1H-pyrrolo[2,3-b]pyridin-5-yl)-1H-pyrazole-5-carboxamide], the IC50 in experiment [1] fell in the range of 10 to 200 µM.

With `O=C(Nc1cnc2[nH]c(-c3ccccc3)cc2c1)c1ccncn1` [P-2011, N-(2-phenyl-1H-pyrrolo[2,3-b]pyridin-5-yl)pyrimidine-4-carboxamide], the IC50 in experiment [1] lay within 10 to 200 µM.

In experiment [1], `Cc1onc(C(=O)Nc2cnc3[nH]c(-c4ccccc4)cc3c2)c1C` [P-2017, 4,5-dimethyl-N-(2-phenyl-1H-pyrrolo[2,3-b]pyridin-5-yl)isoxazole-3-carboxamide] returned an IC50 of 10 to 200 µM.

As for `N#CCc1cccc(C(=O)Nc2cnc3[nH]c(-c4ccc(F)cc4)cc3c2)c1` [P-2021, 3-(cyanomethyl)-N-[2-(4-fluorophenyl)-1H-pyrrolo[2,3-b]pyridin-5-yl]benzamide], in experiment [1], the half-maximal inhibitory concentration (IC50) lay within 10 to 200 µM.

For `N#Cc1cccc(C(=O)Nc2cnc3[nH]c(-c4ccc(F)cc4)cc3c2)c1` [P-2025, 3-cyano-N-[2-(4-fluorophenyl)-1H-pyrrolo[2,3-b]pyridin-5-yl]benzamide], the IC50 in experiment [1] fell in the range of 10 to 200 µM.

For the compound `Cc1n[nH]c(C(=O)Nc2cnc3[nH]nc(-c4ccc(F)cc4)c3c2)c1C` [P-2041, N-(3-(4-fluorophenyl)-1H-pyrazolo[3,4-b]pyridin-5-yl)-3,4-dimethyl-1H-pyrazole-5-carboxamide], in experiment [1], the IC50 was 0.0001 to 1 µM. In experiment [2], this compound showed a pIC50 above 5.00.

Take `O=C(Nc1cnc2[nH]c(-c3ccc(F)cc3)cc2c1)c1n[nH]c2c1CCC2` [P-2056, N-[2-(4-fluorophenyl)-1H-pyrrolo[2,3-b]pyridin-5-yl]-1,4,5,6-tetrahydrocyclopenta[c]pyrazole-3-carboxamide]: the IC50 in experiment [1] was in the range of 0.0001 to 1 µM. For the same compound, in experiment [2], the pIC50 is above 5.00.

In the case of `Cc1n[nH]c(C(=O)Nc2cnc3[nH]c(C#CCF)cc3c2)c1C` [P-2063, N-[2-(3-fluoroprop-1-ynyl)-1H-pyrrolo[2,3-b]pyridin-5-yl]-3,4-dimethyl-1H-pyrazole-5-carboxamide], the IC50 in experiment [1] fell in the range of 0.0001 to 1 µM. This compound gave a pIC50 in experiment [2] above 5.00.

`Cc1n[nH]c(C(=O)Nc2cnc3[nH]c(-c4cccc(OCCN5CCOCC5)c4)cc3c2)c1C` [P-2066, 3,4-dimethyl-N-[2-[3-(2-morpholinoethoxy)phenyl]-1H-pyrrolo[2,3-b]pyridin-5-yl]-1H-pyrazole-5-carboxamide] registered an IC50 in experiment [1] of 0.0001 to 1 µM. Moreover, the pIC50 in experiment [2] is above 5.00.

Consider `Cc1cc(C(=O)Nc2cnc3[nH]c(C#CCF)cc3c2)[nH]n1` [P-2068, N-[2-(3-fluoroprop-1-ynyl)-1H-pyrrolo[2,3-b]pyridin-5-yl]-3-methyl-1H-pyrazole-5-carboxamide], for which, in experiment [1], the IC50 lay in the range of 1 to 10 µM. In addition, the pIC50 in experiment [2] was above 5.00.

For the compound `Cc1[nH]nc(NC(=O)c2cnc3[nH]c(-c4ccccc4)cc3c2)c1C` [P-2071], the IC50 in experiment [1] is 10 to 200 µM.

Take `Cc1[nH]nc(C(=O)Nc2cnc3cc(-c4ccc(F)cc4)nn3c2)c1C` [P-2072, N-[2-(4-fluorophenyl)pyrazolo[1,5-a]pyrimidin-6-yl]-4,5-dimethyl-1H-pyrazole-3-carboxamide]: in experiment [1], the IC50 was in the range of 1 to 10 µM. In experiment [2], this compound showed a pIC50 above 5.00.

Regarding `COc1ccc(-c2cc3cc(NC(=O)c4[nH]nc(C)c4C)cnc3[nH]2)c(Cl)c1` [P-2075, N-[2-(2-chloro-4-methoxy-phenyl)-1H-pyrrolo[2,3-b]pyridin-5-yl]-3,4-dimethyl-1H-pyrazole-5-carboxamide], the IC50 in experiment [1] was 0.0001 to 1 µM. In experiment [2], this compound gave a pIC50 above 5.00.

Take `COc1ccc(-c2cc3cc(NC(=O)c4[nH]nc(C)c4C)cnc3[nH]2)c(F)c1` [P-2076, N-[2-(2-fluoro-4-methoxy-phenyl)-1H-pyrrolo[2,3-b]pyridin-5-yl]-3,4-dimethyl-1H-pyrazole-5-carboxamide]: in experiment [1], the IC50 is 0.0001 to 1 µM. This compound also showed a pIC50 in experiment [2] above 5.00.

Compound `COc1ccc(Cl)c(-c2cc3cc(NC(=O)c4[nH]nc(C)c4C)cnc3[nH]2)c1` [P-2077, N-[2-(2-chloro-5-methoxy-phenyl)-1H-pyrrolo[2,3-b]pyridin-5-yl]-3,4-dimethyl-1H-pyrazole-5-carboxamide] yielded an IC50 in experiment [1] of 1 to 10 µM. In addition, in experiment [2], the pIC50 was above 5.00.

On to `Cc1n[nH]c(C(=O)Nc2cnc3[nH]c(-c4cc(F)cc(N5CCOCC5)c4)cc3c2)c1C` [P-2078, N-[2-(3-fluoro-5-morpholino-phenyl)-1H-pyrrolo[2,3-b]pyridin-5-yl]-3,4-dimethyl-1H-pyrazole-5-carboxamide], for which, in experiment [1], the IC50 lay within 0.0001 to 1 µM. In experiment [2], the pIC50 was above 5.00.

The compound `Cc1n[nH]c(C(=O)Nc2cnc3[nH]c(-c4cc(OC(F)(F)F)ccc4Cl)cc3c2)c1C` [P-2113, N-[2-[2-chloro-5-(trifluoromethoxy)phenyl]-1H-pyrrolo[2,3-b]pyridin-5-yl]-3,4-dimethyl-1H-pyrazole-5-carboxamide] had an IC50 in experiment [1] of 1 to 10 µM. For the same compound, the pIC50 in experiment [2] is above 5.00.

`Cc1cc2ncc(NC(=O)c3n[nH]c(C)c3C)cn2n1` [P-2114, 4,5-dimethyl-N-(2-methylpyrazolo[1,5-a]pyrimidin-6-yl)-1H-pyrazole-3-carboxamide] showed an IC50 in experiment [1] of 1 to 10 µM. In experiment [2], this compound gave a pIC50 above 5.00.

`Cc1n[nH]c(C(=O)Nc2cnc3[nH]c(N4CCCC4)cc3c2)c1C` [P-2115, 3,4-dimethyl-N-(2-pyrrolidin-1-yl-1H-pyrrolo[2,3-b]pyridin-5-yl)-1H-pyrazole-5-carboxamide]: the IC50 in experiment [1] lay in the range of 1 to 10 µM. Further, the pIC50 in experiment [2] was above 5.00.

As for `Cc1n[nH]c(C(=O)Nc2cnc3[nH]c(-c4ccc(C#N)c(N5CCCC5)c4)cc3c2)c1C` [P-2120, N-[2-(4-cyano-3-pyrrolidin-1-yl-phenyl)-1H-pyrrolo[2,3-b]pyridin-5-yl]-3,4-dimethyl-1H-pyrazole-5-carboxamide], the IC50 in experiment [1] fell in the range of 0.0001 to 1 µM. Further, the pIC50 in experiment [2] was above 5.00.

`CNS(=O)(=O)c1cccc(-c2cc3cc(NC(=O)c4[nH]nc(C)c4C)cnc3[nH]2)c1` [P-2121, 3,4-dimethyl-N-[2-[3-(methylsulfamoyl)phenyl]-1H-pyrrolo[2,3-b]pyridin-5-yl]-1H-pyrazole-5-carboxamide] returned an IC50 in experiment [1] of 0.0001 to 1 µM. This compound also gave a pIC50 in experiment [2] above 5.00.

Turning to `Cc1n[nH]c(C(=O)Nc2cnc3[nH]c(-c4ccc(Cl)cc4)cc3c2)c1C` [P-2122, N-[2-(4-chlorophenyl)-1H-pyrrolo[2,3-b]pyridin-5-yl]-3,4-dimethyl-1H-pyrazole-5-carboxamide], the IC50 in experiment [1] is 0.0001 to 1 µM. Also, in experiment [2], the pIC50 was above 5.00.

As for `Cc1ccc(-c2cc3cc(NC(=O)c4[nH]nc(C)c4C)cnc3[nH]2)cn1` [P-2123, 3,4-dimethyl-N-[2-(6-methyl-3-pyridyl)-1H-pyrrolo[2,3-b]pyridin-5-yl]-1H-pyrazole-5-carboxamide], the IC50 in experiment [1] was in the range of 0.0001 to 1 µM. In experiment [2], this compound showed a pIC50 above 5.00.

Regarding `Cc1n[nH]c(C(=O)Nc2cnc3[nH]c(-c4ccccc4)nc3c2)c1C` [P-2145, 3,4-dimethyl-N-(2-phenyl-3H-imidazo[4,5-b]pyridin-6-yl)-1H-pyrazole-5-carboxamide], the IC50 in experiment [1] was in the range of 0.0001 to 1 µM. Also, the pIC50 in experiment [2] is above 5.00.
